Reference: patent publication US9359337B2, “Acetamide derivatives” (Hoffmann-La Roche Inc., priority 2012, dated 2016)

Target: h-TRPA1 (Homo sapiens (Human), UniProt O75762)
Experiment: Dose response calcium flux (FLIPR) assay, ChanTest hTRPA1-CHO stably transfected cell line
Format: cell-based
Details: CHO-K1 Tet-on TRPA1 cells; calcium flux after cinnamaldehyde 100 uM agonist; 30 min compound preincubation
Description: Dose Response Assay: ChanTest hTRPA1-CHO Stably Transfected Cell Line
To induce expression, tetracycline was added to blasticidin/zeocin-free media at a final concentration of 1 ug/ml. Experiments were run at 24 hours post induction.
• Harvested cells with 0.025% trypsin/EDTA. • Resuspended cells in growth media without selection antibiotics. • Measured cell density and diluted to 2.4×10^5 cells/ml in media containing 1 ug/ml Doxycycline Plate 25 ul/well into 384 well black/clear tissue culture-treated plates. • Incubated overnight at 37° C. Calcium Flux Assay: Day of Assay: Reagents: • Replacement Buffer: Hank's Balanced Salt Solution, 20 mM HEPES along with 0.005% BSA and 2× Probenecid • Dye Loading Buffer: Cal-3 NW Calcium dye was prepared by dissolving the contents of one vial with […] Hank's Balanced Salt Solution containing 20 mM HEPES. Control Compounds for CHOK1/TRPA1 Cells: • AP-18, stock 10 mM, prepare 3.5× compound dilution in a Compound Buffer (HBSS/20 mM HEPES/0.005% BSA)—final concentration 10 uM. Preparation of Cinnamaldehyde (Agonist Addition): • FW=132.16 • Specific gravity=1.046 gm/cc • 1.32 gm/1.046 gm/cc=1.26 ml of stock • Add 1.74 ml DMSO=3.3 M stock • Working solution 4.5× (final 100 uM in Compound Buffer: HBSS/20 mM HEPES/0.005% BSA) Compounds dilutions were prepared from 5 or 10 mM stock (100% DMSO):
Compounds were tested at either 20 μM three folds dilution 11 steps out or 30 μM two folds dilution 11 steps out.
Growth media was removed from the cell plates (20 ul) and 20 ul of the Replacement Buffer was added followed by addition of 25 ul of diluted dye. All three steps were performed using a Plate Washer BioTek 407. The plates were then incubated for 30′ at RT.
After incubation, both the cell and compound plates were brought to the FLIPR and 20 ul of the diluted compounds/antagonist/bk were transferred to the cell plates by the FLIPR. Plates were then incubated for 30′ at room temperature. After 30′ incubation, plates were returned to the FLIPR and 20 ul of 4.5× Cinnamaldehyde was added to the cell plates. During the compound addition as well as agonist addition, fluorescence readings were taken simultaneously from all 384 wells of the cell plate every 1.5 seconds. Five readings were taken to establish a stable baseline, then 20 ul of sample was rapidly (30 ul/sec) and simultaneously added to each well of the cell plate. The fluorescence was continuously monitored before, during and after sample/agonist addition for a total elapsed time of 100 seconds (compound addition) and 120 seconds (agonist addition). Responses (increase in peak fluorescence) in each well following agonist addition was determined. The initial fluorescence reading from each well, prior to ligand stimulation, was used a zero baseline value for the data from that well.

h-TRPA1, sequence (O75762 whole entry): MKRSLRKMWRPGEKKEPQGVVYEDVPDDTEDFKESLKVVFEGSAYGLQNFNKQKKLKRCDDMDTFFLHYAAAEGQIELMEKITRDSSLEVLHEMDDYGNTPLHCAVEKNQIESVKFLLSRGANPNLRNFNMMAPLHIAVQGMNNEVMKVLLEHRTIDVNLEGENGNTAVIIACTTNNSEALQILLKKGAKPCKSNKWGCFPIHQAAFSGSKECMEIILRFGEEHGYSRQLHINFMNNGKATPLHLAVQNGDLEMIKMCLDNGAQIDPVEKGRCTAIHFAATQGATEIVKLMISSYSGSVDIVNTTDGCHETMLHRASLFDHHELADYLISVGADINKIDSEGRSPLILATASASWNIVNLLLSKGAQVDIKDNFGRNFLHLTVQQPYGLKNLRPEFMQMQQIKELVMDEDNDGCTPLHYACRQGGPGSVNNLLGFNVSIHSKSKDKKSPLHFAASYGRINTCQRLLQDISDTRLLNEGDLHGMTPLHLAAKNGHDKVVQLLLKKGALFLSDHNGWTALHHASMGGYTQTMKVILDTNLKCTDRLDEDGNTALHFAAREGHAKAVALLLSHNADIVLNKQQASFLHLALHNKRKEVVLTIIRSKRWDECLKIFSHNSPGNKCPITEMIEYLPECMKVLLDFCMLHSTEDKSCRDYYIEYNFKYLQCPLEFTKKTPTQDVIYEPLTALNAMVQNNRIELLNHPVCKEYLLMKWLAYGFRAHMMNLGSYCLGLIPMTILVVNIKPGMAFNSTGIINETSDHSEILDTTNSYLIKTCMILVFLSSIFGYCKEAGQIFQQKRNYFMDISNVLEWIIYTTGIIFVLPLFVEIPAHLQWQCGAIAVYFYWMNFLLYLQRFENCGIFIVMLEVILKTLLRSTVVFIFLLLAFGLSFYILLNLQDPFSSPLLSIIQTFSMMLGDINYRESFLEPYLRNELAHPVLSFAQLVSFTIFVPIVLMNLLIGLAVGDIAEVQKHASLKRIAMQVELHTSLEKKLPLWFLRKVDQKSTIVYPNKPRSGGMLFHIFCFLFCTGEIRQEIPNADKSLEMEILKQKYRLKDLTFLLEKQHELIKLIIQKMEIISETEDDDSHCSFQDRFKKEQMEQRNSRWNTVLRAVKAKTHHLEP

Row | Structure (SMILES) | IC50 [nM]
1 | CC(C)N(CC(=O)NC[C@@H]1CN(c2ccc(C(F)(F)F)cc2)CCO1)S(=O)(=O)c1ccc(F)cc1 [Example 10, 2-[(4-Fluoro-benzenesulfonyl)-isopropyl-amino]-N—[(R)-4-(4-trifluoromethyl-phenyl)-morpholin-2-ylmethyl]-acetamide] | 1310
2 | CC(C)N(CC(=O)NC[C@@H]1CCCN(c2ccc(C(F)(F)F)cc2)C1)S(=O)(=O)c1ccc(F)cc1 [Example 5, 2-[(4-Fluoro-benzenesulfonyl)-isopropyl-amino]-N—[(S)-1-(4-trifluoromethyl-phenyl)-piperidin-3-ylmethyl]-acetamide] | 307
3 | CCN(CC(=O)NCC1CN(c2ccc(C(F)(F)F)cc2)CCO1)S(=O)(=O)c1ccc(F)cc1 (centres unmarked) [Example 9, 2-[Ethyl-(4-fluoro-benzenesulfonyl)-amino]-N-[4-(4-trifluoromethyl-phenyl)-morpholin-2-ylmethyl]-acetamide] | 226
4 | CCN(CC(=O)NCC1CCCN(c2ccc(C(F)(F)F)cc2)C1)S(=O)(=O)c1ccc(F)cc1 (centres unmarked) [Example 1, 2-[Ethyl-(4-fluoro-benzenesulfonyl)-amino]-N-[1-(4-trifluoromethyl-phenyl)-piperidin-3-ylmethyl]-acetamide] | 494
5 | CC(C)N(CC(=O)NCC1CCN(c2ccc(C(F)(F)F)cc2)C1)S(=O)(=O)c1ccc(F)cc1 (centres unmarked) [Example 4, 2-[(4-Fluoro-benzenesulfonyl)-isopropyl-amino]-N-[1-(4-trifluoromethyl-phenyl)-pyrrolidin-3-ylmethyl]-acetamide] | 425
6 | CC(C)N(CC(=O)NCC1CN(c2ccc(C(F)(F)F)cc2)CCO1)S(=O)(=O)c1ccc(F)cc1 (racemic) [Example 8, 2-[(4-Fluoro-benzenesulfonyl)-isopropyl-amino]-N-[4-(4-trifluoromethyl-phenyl)-morpholin-2-ylmethyl]-acetamide] | 193
7 | CC(C)N(CC(=O)NCC1CN(c2ccc(C(F)(F)F)cn2)CCO1)S(=O)(=O)c1ccc(F)cc1 (centres unmarked) [Example 12, 2-[(4-Fluoro-benzenesulfonyl)-isopropyl-amino]-N-[4-(5-trifluoromethyl-pyridin-2-yl)-morpholin-2-ylmethyl]-acetamide] | 385
8 | CC(C)N(CC(=O)NCC1CCCN(c2ccc(C(F)(F)F)cc2)C1)S(=O)(=O)c1ccc(F)cc1 (racemic) [Example 2, 2-[(4-Fluoro-benzenesulfonyl)-isopropyl-amino]-N-[1-(4-trifluoromethyl-phenyl)-piperidin-3-ylmethyl]-acetamide] | 233
9 | CC(C)N(CC(=O)NC[C@H]1CN(c2ccc(C(F)(F)F)cc2)CCO1)S(=O)(=O)c1ccc(F)cc1 [Example 11, 2-[(4-Fluoro-benzenesulfonyl)-isopropyl-amino]-N—[(S)-4-(4-trifluoromethyl-phenyl)-morpholin-2-ylmethyl]-acetamide] | 151
10 | CCN(CC(=O)NCC1CCN(c2ccc(C(F)(F)F)cc2)C1)S(=O)(=O)c1ccc(F)cc1 (centres unmarked) [Example 3, 2-[Ethyl-(4-fluoro-benzenesulfonyl)-amino]-N-[1-(4-trifluoromethyl-phenyl)-pyrrolidin-3-ylmethyl]-acetamide] | 634
11 | CC(C)N(CC(=O)NC[C@H]1CCCN(c2ccc(C(F)(F)F)cc2)C1)S(=O)(=O)c1ccc(F)cc1 [Example 6, 2-[(4-Fluoro-benzenesulfonyl)-isopropyl-amino]-N—[(R)-1-(4-trifluoromethyl-phenyl)-piperidin-3-ylmethyl]-acetamide] | 504
